# Active and inactive are the calls of the source. The rule behind the calls is not given here.
# Assays:
# [1] = Log K2 of the compound in 0.1M KCl at pH 2.0 to 10.5 by UV absorption method; format: physicochemical
# [2] = Acid dissociation constant, pKa2 of the compound in 0.1M KCl at pH 2.0 to 10.5 by UV absorption method; format: physicochemical
# [3] = Acid dissociation constant, pKa3 of the compound in 0.1M KCl at pH 2.0 to 10.5 by UV absorption method; format: physicochemical
# [4] = Antioxidant activity assessed as trolox equivalent of ORAC radical scavenging activity at 4 uM; format: functional
# [5] = Acid dissociation constant, pKa1 of the compound in 0.1M KCl at pH 2.0 to 10.5 by UV absorption method; format: physicochemical
# [6] = Antioxidant activity assessed as trolox equivalent of ORAC radical scavenging activity at 8 uM; format: functional
# [7] = Log K1 of the compound in 0.1M KCl at pH 0.9 to 2.1 by UV absorption method; format: physicochemical
# [8] = Antioxidant activity assessed as ABTS radical scavenging activity incubated in dark for 6 mins by absorbance based microplate reader analysis; format: functional
# [9] = Metal chelating activity assessed as Fe3+ chelation
# [10] = Log K3 of the compound in 0.1M KCl at pH 2.0 to 10.5 by UV absorption method; format: physicochemical
# HT-22 [11] = assay: Anti-ferroptotic activity in erastin-induced ferroptosis in mouse HT-22 cells assessed as cell viability incubated for 24 hrs by MTT assay; format: functional, cell-based; conditions: HT-22, 24 h
# HT-22 [12] = assay: Cytotoxicity against mouse HT-22 cells assessed as reduction in cell viability at 150 uM by MTT assay relative to control; format: toxicity, cell-based; conditions: ht-22, 150 µM
# HT-22 [13] = assay: Anti-ferroptotic activity against Erastin-induced ferroptosis in mouse HT-22 cells assessed as reduction in ROS accumulation at 100 uM measured after 24 hrs by DCFH-DA based flow cytometry analysis relative to control; format: functional; design: scale not given: the % may be the effect or the level left
# HEK-293T [14] = assay: Protection against cisplatin-induced cytotoxicity in HEK293T cells assessed as reduction in attenuation of intracellular Fe2+ at 30 to 80 uM measured after 24 hrs by FeRhoNox-1 based flow cytometry analysis; format: functional, cell-based; conditions: Homo sapiens, dose 30-80 µM
# L02 = assay: Cytotoxicity against human L02 cells assessed as reduction in cell viability at upto 100 uM by MTT assay; format: toxicity, cell-based; conditions: l02, 100 µM
# HEK-293T [15] = assay: Protection against cisplatin-induced cytotoxicity in HEK293T cells assessed as cell viability measured after 24 to 48 hrs by MTT assay; format: functional, cell-based; conditions: Homo sapiens
structure (smiles),measurement,setting,value
Cc1ccc(/C=C/C(=O)Nn2ccc(=O)c(O)c2C)cc1,log(activity),[1],26.49
same,pKa,[2],7.24
same,pKa,[3],10.3
same,Activity,[4],0.72
same,pKa,[5],2.25
same,Activity,[6],2.89
same,log(activity),[7],13.93
same,IC50,[8],4.79 µM
same,Activity,[9],16.8
same,log(activity),[10],34.5
Cc1c(O)c(=O)ccn1NC(=O)/C=C/c1ccccc1Cl,log(activity),[1],26.11
same,pKa,[2],6.96
same,pKa,[3],10.2
same,Activity,[4],2.67
same,pKa,[5],2.22
same,Activity,[6],6.46
same,log(activity),[7],14.03
same,IC50,[8],5.14 µM
same,Activity,[9],17.4
same,log(activity),[10],35.29
Cc1c(O)c(=O)ccn1NC(=O)/C=C/c1ccccc1F,log(activity),[1],26.41
same,pKa,[2],6.74
same,pKa,[3],10.3
same,Activity,[4],18.1
same,EC50,HT-22 [11],25.8 µM
same,pKa,[5],2.4
same,Activity,[6],24.9
same,Activity,HT-22 [12],> 80%
same,log(activity),[7],14.34
same,IC50,[8],4.38 µM
same,Activity,[9],17.6
same,log(activity),[10],35.75
COc1cccc(/C=C/C(=O)Nn2ccc(=O)c(O)c2C)c1,log(activity),[1],26.72
same,pKa,[2],6.99
same,pKa,[3],10.2
same,Activity,[4],8.99
same,EC50,HT-22 [11],26.2 µM
same,pKa,[5],2.4
same,Activity,[6],16.1
same,Activity,HT-22 [12],> 80%
same,log(activity),[7],14.2
same,IC50,[8],4.78 µM
same,Activity,[9],17.8
same,log(activity),[10],35.64
COc1ccc(/C=C/C(=O)Nn2ccc(=O)c(O)c2C)c(OC)c1OC,log(activity),[1],25.73
same,pKa,[2],7.29
same,pKa,[3],10.2
same,Activity,[4],8.52
same,EC50,HT-22 [11],19.6 µM
same,pKa,[5],2.1
same,Activity,[6],14.8
same,Activity,HT-22 [12],> 80%
same,log(activity),[7],13.72
same,IC50,[8],6.99 µM
same,Activity,[9],17
same,log(activity),[10],35
O=C(O)/C=C/c1ccccc1 [CINNAMIC ACID],Activity,[4],1.27
same,Activity,[6],1.13
same,IC50,[8],> 100 µM
Cc1c(O)c(=O)ccn1NC(=O)/C=C/c1ccccc1,log(activity),[1],25.88
same,pKa,[2],7.1
same,pKa,[3],10.1
same,Activity,[4],6.73
same,EC50,HT-22 [11],72 µM
same,pKa,[5],2.37
same,Activity,[6],11.4
same,Activity,HT-22 [12],> 80%
same,log(activity),[7],13.61
same,IC50,[8],4.8 µM
same,Activity,[9],17.9
same,log(activity),[10],35.4
COc1ccccc1/C=C/C(=O)Nn1ccc(=O)c(O)c1C,log(activity),[1],26.17
same,pKa,[2],7.09
same,pKa,[3],10.3
same,Activity,[4],8.92
same,EC50,HT-22 [11],18.2 µM
same,pKa,[5],2.46
same,Activity,[6],14.6
same,Activity,HT-22 [12],> 80%
same,log(activity),[7],14.14
same,IC50,[8],4.78 µM
same,Activity,[9],17.4
same,log(activity),[10],35.48
Cc1cccc(C)c1/C=C/C(=O)Nn1ccc(=O)c(O)c1C,log(activity),[1],25.8
same,pKa,[2],6.97
same,pKa,[3],10.3
same,Activity,[4],2.91
same,pKa,[5],2.06
same,Activity,[6],5.6
same,log(activity),[7],13.71
same,IC50,[8],4.88 µM
same,Activity,[9],16.9
same,log(activity),[10],35.08
Cc1c(O)c(=O)ccn1NC(=O)/C=C/c1ccc(F)cc1,log(activity),[1],26.34
same,pKa,[2],7.15
same,pKa,[3],10.2
same,Activity,[4],22.8
same,EC50,HT-22 [11],17.4 µM
same,pKa,[5],2.64
same,Activity,[6],34.1
same,Activity,HT-22 [12],> 80%
same,log(activity),[7],14.3
same,IC50,[8],4.97 µM
same,Activity,[9],17.8
same,log(activity),[10],35.77
COc1ccc(/C=C/C(=O)Nn2ccc(=O)c(O)c2C)cc1,log(activity),[1],26.09
same,pKa,[2],7.41
same,pKa,[3],10.3
same,Activity,[4],9.42
same,EC50,HT-22 [11],28.9 µM
same,pKa,[5],2.42
same,Activity,[6],19.4
same,log(activity),[7],14.01
same,IC50,[8],5.17 µM
same,Activity,[9],17.1
same,log(activity),[10],35.52
COc1ccc(/C=C/C(=O)Nn2ccc(=O)c(O)c2C)c(F)c1,Activity,[4],< 0.1
same,Activity,[6],6.01
same,IC50,[8],> 100 µM
Cc1c(O)c(=O)ccn1NC(=O)/C=C/c1c(F)cccc1F,log(activity),[1],26.25
same,pKa,[2],6.83
same,pKa,[3],10.2
same,Activity,[4],2.45
same,pKa,[5],2.51
same,Activity,[6],5.03
same,log(activity),[7],14.27
same,IC50,[8],4.81 µM
same,Activity,[9],17.4
same,log(activity),[10],35.32
Cc1c(O)c(=O)ccn1NC(=O)/C=C/c1cccc(Cl)c1,log(activity),[1],26.16
same,pKa,[2],6.66
same,pKa,[3],10.1
same,Activity,[4],3.27
same,pKa,[5],2.52
same,Activity,[6],6.52
same,log(activity),[7],14.03
same,IC50,[8],4.9 µM
same,Activity,[9],17.8
same,log(activity),[10],35.28
same,Activity,HT-22 [13],100%
Cc1c(O)c(=O)ccn1C [DEFERIPRONE],log(activity),[1],25.8
same,pKa,[2],9.93
same,Activity,[4],4.73
same,EC50,HT-22 [11],165 µM
same,Activity,HEK-293T [14],Active
same,Activity,[6],9.19
same,Activity,HT-22 [12],> 80%
same,Activity,L02,Non-Toxic
same,EC50,HEK-293T [15],40 µM
same,log(activity),[7],14.12
same,IC50,[8],9.7 µM
same,Activity,[9],17.9
same,log(activity),[10],34.97
Cc1c(O)c(=O)ccn1NC(=O)/C=C/c1ccc(C(F)(F)F)cc1,Activity,[4],< 0.1
same,Activity,[6],0.61
same,IC50,[8],12 µM
O=C(/C=C/c1ccccc1)c1ccccc1 [CHALCONE],EC50,HT-22 [11],> 500 µM
Cc1c(O)c(=O)ccn1NC(=O)/C=C/c1ccc(Cl)cc1,Activity,[4],< 0.1
same,Activity,[6],< 0.1
same,IC50,[8],8.66 µM
COc1ccc(/C=C/C(=O)Nn2ccc(=O)c(O)c2C)cc1OC,log(activity),[1],25.87
same,pKa,[2],7.33
same,pKa,[3],10.2
same,Activity,[4],15.7
same,EC50,HT-22 [11],33.5 µM
same,pKa,[5],2.29
same,Activity,[6],21.1
same,Activity,HT-22 [12],> 80%
same,log(activity),[7],13.89
same,IC50,[8],4.9 µM
same,Activity,[9],17.3
same,log(activity),[10],35.17
Cc1cccc(/C=C/C(=O)Nn2ccc(=O)c(O)c2C)c1,log(activity),[1],25.95
same,pKa,[2],7.23
same,pKa,[3],10.4
same,Activity,[4],0.57
same,pKa,[5],1.3
same,Activity,[6],2.51
same,log(activity),[7],13.57
same,IC50,[8],4.91 µM
same,Activity,[9],15.8
same,log(activity),[10],35.55
Cc1c(C)c2c(c(C)c1O)CCC(C)(C(=O)O)O2 (centres undefined) [TROLOX],IC50,[8],15.3 µM
COc1cc(F)ccc1/C=C/C(=O)Nn1ccc(=O)c(O)c1C,log(activity),[1],26.09
same,pKa,[2],7.02
same,pKa,[3],10.4
same,Activity,[4],1.21
same,pKa,[5],2.34
same,Activity,[6],3.83
same,log(activity),[7],14.06
same,IC50,[8],5.01 µM
same,Activity,[9],17
same,log(activity),[10],35.29
Cc1c(O)c(=O)ccn1NC(=O)/C=C/c1cc(Cl)ccc1Cl,log(activity),[1],26.02
same,pKa,[2],7.34
same,pKa,[3],10
same,Activity,[4],3.06
same,pKa,[5],2.48
same,Activity,[6],6.56
same,log(activity),[7],14.19
same,IC50,[8],> 100 µM
same,Activity,[9],17.7
same,log(activity),[10],35.05
Cc1c(O)c(=O)ccn1NC(=O)/C=C/c1cccc(Cl)c1F,Activity,[4],< 0.1
same,Activity,[6],1.24
same,IC50,[8],21.8 µM
Oc1ccc(/C=C/c2cc(O)cc(O)c2)cc1 [RESVERATROL],Activity,[4],16.7
same,Activity,[6],17.6
same,IC50,[8],5.14 µM
Cc1ccccc1/C=C/C(=O)Nn1ccc(=O)c(O)c1C,log(activity),[1],25.95
same,pKa,[2],6.98
same,pKa,[3],10.2
same,Activity,[4],0.97
same,pKa,[5],2.23
same,Activity,[6],3.09
same,log(activity),[7],13.79
same,IC50,[8],4.68 µM
same,Activity,[9],17.6
same,log(activity),[10],35.43
Cc1cccc(/C=C/C(=O)Nn2ccc(=O)c(O)c2C)c1C,log(activity),[1],26.22
same,pKa,[2],7.06
same,pKa,[3],10.3
same,Activity,[4],7.64
same,pKa,[5],2.38
same,Activity,[6],13.1
same,log(activity),[7],14.07
same,IC50,[8],10.2 µM
same,Activity,[9],17.5
same,log(activity),[10],35.67
Cc1c(O)c(=O)ccn1NC(=O)/C=C/c1ccc(F)cc1F,log(activity),[1],26.11
same,pKa,[2],6.83
same,pKa,[3],10.2
same,Activity,[4],1.17
same,pKa,[5],2.57
same,Activity,[6],2.67
same,log(activity),[7],14.11
same,IC50,[8],7.51 µM
same,Activity,[9],17.5
same,log(activity),[10],35.31
Cc1c(O)c(=O)ccn1NC(=O)/C=C/c1ccc(F)cc1Cl,log(activity),[1],26.4
same,pKa,[2],6.7
same,pKa,[3],10.2
same,Activity,[4],2.15
same,pKa,[5],2.71
same,Activity,[6],4.78
same,log(activity),[7],14.41
same,IC50,[8],5.01 µM
same,Activity,[9],17.6
same,log(activity),[10],35.55
